Reference: patent publication US6716851B2, “Substituted 2-aryl-4-arylaminopyrimidines and analogs as activators or caspases and inducers of apoptosis and the use thereof” (Cytovia, Inc., priority 2000, dated 2004)

Key:
[1] = tested on: T-47D cells; experiment: Caspase cascade activation (N-(Ac-DEVD)-N'-ethoxycarbonyl-R110 fluorogenic substrate) in T-47D cells; format: cell-based, Human; conditions: 48 h incubation; for EC50: Homo sapiens, T47D, caspase activation potency, read-out: T47 EC50; for T47 Ratio 48 hr: caspase activity: ratio of net RFU of test compound to control
Procedure: (§1) Human breast cancer cell lines T-47D and ZR-75-1 were grown according to media component mixtures designated by American Type Culture Collection +10% FCS (Invitrogen Corporation, Life Technologies division), in a 5% CO2-95% humidity incubator at 37° C. T-47D and ZR-75-1 cells were maintained at a cell density between 50 and 80% confluency at a cell density of 0.1 to 0.6×10^6 cells/ml. Cells were harvested at 600× g and resuspended at 0.65×10^6 cells/ml into appropriate media +10% FCS. An aliquot of […] of cells was added to a well of a […] microtiter plate containing 2.5 μl of a 10% DMSO in RPMI-1640 media solution containing 0.16 to 100 μM of 4-(3-methoxyanilino)-2-(2-pyridinyl)-6-(trifluoromethyl)pyrimidine or other test compound (0.016 to 10 μM final). An aliquot of 22.5 μl of cells was added to a well of a 384-well microtiter plate containing 2.5 μl of a 10% DMSO in RPMI-1640 media solution without test compound as the control sample. The samples were mixed by agitation and then incubated at 37° C. for 48 h in a 5% CO2-95% humidity incubator. After incubation, the samples were removed from the incubator and 25 μl of a solution containing 14 μM of N-(Ac-DEVD)-N′-ethoxycarbonyl-R110 fluorogenic substrate (Cytovia, Inc.; WO99/18856), 20% sucrose (Sigma), 20 mM DTT (Sigma), 200 mM NaCl (Sigma), 40 mM Na PIPES buffer pH 7.2 (Sigma), and 500 μg/ml lysolecithin (Calbiochem) was added. The samples were mixed by agitation and incubated at room temperature. Using a fluorescent plate reader (Model SpectraMax Gemini, Molecular Devices), an initial reading (T=0) was made approximately 1-2 min after addition of the substrate solution, employing excitation at 485 nm and emission at 530 nm, to determine the background fluorescence of the control sample. After the 3 h incubation, the samples were read for fluorescence as above (T=3 h).
(§2) The Relative Fluorescence Unit values (RFU) were used to calculate the sample readings as follows:
(§3) RFU(T=3h)−Control RFU(T=0)=Net RFU(T=3h)
(§4) The activity of caspase cascade activation was determined by the ratio of the net RFU value for 4-(3-methoxyanilino)-2-(2-pyridinyl)-6-(trifluoromethyl)pyrimidine or other test compound to that of control samples. The EC50 (nM) was determined by a sigmoidal dose-response calculation (Prism 2.0, GraphPad Software Inc.).

[2] = tested on: ZR-75-1 cells; experiment: Caspase cascade activation (N-(Ac-DEVD)-N'-ethoxycarbonyl-R110 fluorogenic substrate) in ZR-75-1 cells; format: cell-based, Human; conditions: ZR-75-1, 48 h incubation; for EC50: Homo sapiens, caspase activation potency; for ZR Ratio 48 hr: caspase activity: ratio of net RFU of test compound to control
Procedure: as §1, §2, §3, §4

Row | SMILES | EC50 [1] | EC50 [2] | T47 Ratio 48 hr [1] | ZR Ratio 48 hr [2]
1 | Fc1c(F)c(F)c(Oc2cccc(Nc3cc(C(F)(F)F)nc(-c4cccnc4)n3)c2)c(F)c1F [Example 62, 4-[3-(2,3,4,5,6-Pentafluorophenoxy)anilino]-2-(3-pyridinyl)-6-(trifluoromethyl)pyrimidine] | > 5 µM | > 5 µM | 1.6 | 1.3
2 | COc1ccc(OC)c(Nc2cc(C(F)(F)F)nc(-c3ccccn3)n2)c1 [Example 63, 4-(2,5-Dimethoxyanilino)-2-(2-pyridinyl)-6-(trifluoromethyl)pyrimidine] | 0.018 µM | 0.043 µM | 8.9 | 9.6
3 | O=S(=O)(c1ccccc1)c1cccc(Nc2cc(C(F)(F)F)nc(-c3cccnc3)n2)c1 [Example 65, 4-[3-(Phenylsulfone)anilino]-2-(3-pyridinyl)-6-(trifluoromethyl)pyrimidine] | > 5 µM | > 5 µM | 1.7 | 1.7
4 | O=C(Nc1ccccc1)c1cccc(Nc2cc(C(F)(F)F)nc(-c3cccnc3)n2)c1 [Example 66, 4-[3-(N-phenylamide)anilino]-2-(3-pyridinyl)-6-(trifluoromethyl)pyrimidine] | > 5 µM | > 5 µM | 1.2 | 0.9
5 | FC(F)(F)c1cc(Nc2cccc(Oc3ccccc3)c2)nc(-c2cccnc2)n1 [Example 67, 4-(3-Phenoxyanilino)-2-(3-pyridinyl)-6-(trifluoromethyl)pyrimidine] | > 5 µM | > 5 µM | 1.5 | 1.2
6 | Cc1ccc(C)c(Nc2cc(C(F)(F)F)nc(-c3cccnc3)n2)c1 [Example 68, 4-(2,5-Dimethylanilino)-2-(3-pyridinyl)-6-(trifluoromethyl)pyrimidine] | 0.247 µM | 0.13 µM | 20.9 | 17.9
7 | Cl.Oc1cccc(Nc2cc(C(F)(F)F)nc(-c3ccccn3)n2)c1 [Example 69, 4-(3-Hydroxyanilino)-2-(2-pyridinyl)-6-(trifluoromethyl)pyrimidine hydrochloride] | 0.382 µM | 0.127 µM | 14.2 | 10.9
8 | COc1cccc(Nc2cc(C(F)(F)F)nc(-c3ccccc3)n2)c1 [Example 73, 4-(3-Methoxyanilino)-2-phenyl-6-(trifluoromethyl)pyrimidine] | > 5 µM | 10 µM | 1.6 | 2.6
9 | COc1cccc(Nc2cc(C(F)(F)F)nc(-c3cnccn3)n2)c1 [Example 74, 4-(3-Methoxyanilino)-2-(2-pyrazinyl)-6-(trifluoromethyl)pyrimidine] | 0.364 µM | 0.326 µM | 16.4 | 13.1
10 | COc1ccc(OC)c(Nc2cc(C(F)(F)F)nc(-c3ccccc3)n2)c1 [Example 75, 4-(2,5-Dimethoxyanilino)-2-phenyl-6-(trifluoromethyl)pyrimidine] | 2.29 µM | 3.28 µM | 16.3 | 7.8
11 | COc1ccc(C)c(Nc2cc(C(F)(F)F)nc(-c3cnccn3)n2)c1 [Example 80, 4-(5-Methoxy-2-methylanilino)-2-(2-pyrazinyl)-6-(trifluoromethyl)pyrimidine] | 0.064 µM | 0.243 µM | 8.5 | 5.9
12 | COc1ccc(Cl)c(Nc2cc(C(F)(F)F)nc(-c3ccccc3)n2)c1 [Example 81, 4-(2-Chloro-5-methoxyanilino)-2-phenyl-6-(trifluoromethyl)pyrimidine] | 5.05 µM | 5.5 µM | 12.7 | 5.0
13 | COc1ccc(Oc2ccccc2)cc1Nc1cc(C(F)(F)F)nc(-c2cccnc2)n1 [Example 85, 4-(2-Methoxy-5-phenoxyanilino)-2-(3-pyridinyl)-6-(trifluoromethyl)pyrimidine] | > 5 µM | 2.83 µM | 1.7 | 6.7
14 | COc1ccc(C)cc1Nc1cc(C(F)(F)F)nc(-c2cccnc2)n1 [Example 87, 4-(2-Methoxy-5-methylanilino)-2-(3-pyridinyl)-6-(trifluoromethyl)pyrimidine] | < 0.075 µM | < 0.075 µM | 19.2 | 16.9
15 | Cc1ccc(F)cc1Nc1cc(C(F)(F)F)nc(-c2cccnc2)n1 [Example 88, 4-(5-Fluoro-2-methylanilino)-2-(3-pyridinyl)-6-(trifluoromethyl)pyrimidine] | 2.31 µM | 1.22 µM | 9.8 | 8.0

More lines, main results first:

Row | EC50 [1] | EC50 [2] | SMILES | T47 Ratio 48 hr [1] | ZR Ratio 48 hr [2]
16 | 2.74 µM | 1.6 µM | COc1ccc(C(F)(F)F)cc1Nc1cc(C(F)(F)F)nc(-c2cccnc2)n1 [Example 89, 4-(2-Methoxy-5-trifluoromethylanilino)-2-(3-pyridinyl)-6-(trifluoromethyl)pyrimidine] | 8.7 | 9.8
17 | 1.44 µM | 0.788 µM | Cc1ccc(N)cc1Nc1cc(C(F)(F)F)nc(-c2cccnc2)n1.Cl [Example 91, 4-(5-Amino-2-methylanilino)-2-(3-pyridinyl)-6-(trifluoromethyl)pyrimidine hydrochloride] | 11.7 | 8.8
18 | 0.363 µM | 0.285 µM | CCOc1cccc(Nc2cc(C(F)(F)F)nc(-c3ccccn3)n2)c1 [Example 92, 4-(3-Ethoxyanilino)-2-(2-pyridinyl)-6-(trifluoromethyl)pyrimidine] | 16.8 | 12.4
19 | > 5 µM | 2.03 µM | CCc1cccc(Nc2cc(C(F)(F)F)nc(-c3ccccn3)n2)c1 [Example 93, 4-(3-Ethylanilino)-2-(2-pyridinyl)-6-(trifluoromethyl)pyrimidine] | 2.0 | 8.2
20 | 0.113 µM | 0.148 µM | COc1ccc(Cl)c(Nc2cc(C(F)(F)F)nc(-c3ccccn3)n2)c1 [Example 95, 4-(2-Chloro-5-methoxyanilino)-2-(2-pyridinyl)-6-(trifluoromethyl)pyrimidine] | 11.6 | 8.6
21 | > 5 µM | 2.76 µM | CSc1cccc(Nc2cc(C(F)(F)F)nc(-c3ccccn3)n2)c1 [Example 96, 4-(3-Methylmercaptoanilino)-2-(2-pyridinyl)-6-(trifluoromethyl)pyrimidine] | 1.4 | 4.9
22 | 0.659 µM | 0.717 µM | Cl.Oc1cccc(Nc2cc(C(F)(F)F)nc(-c3cccnc3)n2)c1 [Example 97, 4-(3-Hydroxyanilino)-2-(3-pyridinyl)-6-(trifluoromethyl)pyrimidine hydrochloride] | 14.5 | 6.7
23 | 0.512 µM | 0.701 µM | CCOc1ccc(OCC)c(Nc2cc(C(F)(F)F)nc(-c3cccnc3)n2)c1 [Example 102, 4-(2,5-Diethoxyanilino)-2-(3-pyridinyl)-6-(trifluoromethyl)pyrimidine] | 8.0 | 7.4
24 | > 5 µM | > 5 µM | COc1cccc(CNc2cc(C(F)(F)F)nc(-c3cccnc3)n2)c1 [Example 104, 4-(3-Methoxybenzylamino)-2-(3-pyridinyl)-6-(trifluoromethyl)pyrimidine] | 1.1 | 1.7
25 | 0.183 µM | 0.982 µM | Oc1ccc(Cl)c(Nc2cc(C(F)(F)F)nc(-c3cccnc3)n2)c1 [Example 106, 4-(2-Chloro-5-hydroxyanilino)-2-(3-pyridinyl)-6-(trifluoromethyl)pyrimidine] | 9.0 | 2.4
26 | 0.063 µM | 0.123 µM | Oc1ccc(Cl)c(Nc2cc(C(F)(F)F)nc(-c3ccncc3)n2)c1 [Example 107, 4-(2-Chloro-5-hydroxyanilino)-2-(4-pyridinyl)-6-(trifluoromethyl)pyrimidine] | 8.0 | 5.3
